Source: patent publication US20230278972A1, “SUBSTITUTED HALOALKYL SULFONANILIDE HERBICIDES” (FMC Corporation, priority 2020, published 2023)
Where two headings read alike, the source gives them in different places.

Columns and labels:
[1] = test system: blackgrass (Alopecurus myosuroides); test: Test A postemergence, blackgrass; type: in vivo; conditions: Alopecurus myosuroides, post-emergence, 240 h, Postemergence, 0 to 100 scale (0 no effect, 100 complete control); for pest or weed control at 125 g/ha: 125 g ai/ha; for pest or weed control at 500 g/ha: 500 g ai/ha
Procedure, shortened: (§1)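 Directed soil spray at planting gave the preemergence treatment, while foliar application to one- to two-leaf seedlings (2–10 cm) gave the postemergence one; pots held a loam and sand mixture and chemicals were carried in a non-phytotoxic solvent with surfactant.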

kochia (Bassia scoparia) = test: Test A postemergence, kochia; type: in vivo; conditions: Bassia scoparia, post-emergence, 240 h, Postemergence, 0 to 100 scale (0 no effect, 100 complete control); for pest or weed control at 125 g/ha: 125 g ai/ha; for pest or weed control at 500 g/ha: 500 g ai/ha
Procedure, shortened: as §1

[2] = test system: wheat (Triticum aestivum); test: Test A postemergence, wheat; type: in vivo; conditions: Triticum aestivum, post-emergence, 240 h, Postemergence, 0 to 100 scale (0 no effect, 100 complete control); for plant injury at 125 g/ha: 125 g ai/ha; for plant injury at 500 g/ha: 500 g ai/ha
Procedure, shortened: as §1

rice (Oryza sativa) = test: Test B flooded paddy test, rice; conditions: 336 h, read-out: Plant response rating, Rice
[3] = test system: ducksalad (Heteranthera limosa); test: Test B flooded paddy test, ducksalad; conditions: 336 h, read-out: Plant response rating, Ducksalad
[4] = visual injury approx. 10 days, read-out: Plant response rating, Blackgrass
[5] = visual injury, approx. 10 days, read-out: Plant response rating, Blackgrass
[6] = visual injury approx. 10 days, read-out: Plant response rating, Kochia
[7] = visual injury, approx. 10 days, read-out: Plant response rating, Kochia
[8] = visual injury approx. 10 days, read-out: Plant response rating, Wheat
[9] = visual injury, approx. 10 days, read-out: Plant response rating, Wheat
[10] = visual injury vs untreated controls after approx. 10 days, read-out: Blackgrass plant response rating
[11] = visual injury vs untreated controls after approx. 10 days, read-out: Kochia plant response rating
[12] = visual injury vs untreated controls after approx. 10 days, read-out: Wheat plant response rating
[13] = read-out: Plant response rating, Wheat
[14] = read-out: Plant response rating, Blackgrass
[15] = read-out: Plant response rating, Kochia

Row | SMILES | pest or weed control at 125 g/ha [1, 4] | pest or weed control at 500 g/ha [1, 5] | pest or weed control at 125 g/ha (kochia (Bassia scoparia); [6]) | pest or weed control at 500 g/ha (kochia (Bassia scoparia); [7]) | plant injury at 125 g/ha [2, 8] | plant injury at 500 g/ha [2, 9] | plant injury at 250 g/ha (rice (Oryza sativa)) | pest or weed control at 250 g/ha [3] | pest or weed control at 500 g/ha [1, 10] | pest or weed control at 500 g/ha (kochia (Bassia scoparia); [11]) | plant injury at 500 g/ha [2, 12] | plant injury at 125 g/ha [2, 13] | pest or weed control at 125 g/ha [1, 14] | pest or weed control at 125 g/ha (kochia (Bassia scoparia); [15])
1 | Cc1cc(Cl)c(NS(=O)(=O)C(F)(F)F)cc1C(=O)N1CCOCC1 [Compound 16, N-[2-Chloro-4-methyl-5-(4-morpholinylcarbonyl)phenyl]-1,1,1-trifluoromethanesulfonamide] | 50% | 40% | 40% | 80% | 50% | 70% | 0% | 40% | – | – | – | – | – | –
2 | Cc1cc(Cl)c(NS(=O)(=O)C(F)(F)F)cc1C(=O)N1CCCCC1 [Compound 18, N-[2-Chloro-4-methyl-5-(1-piperidinylcarbonyl)phenyl]-1,1,1-trifluoromethanesulfonamide] | 0% | 0% | 10% | 40% | 0% | 70% | 0% | 0% | – | – | – | – | – | –
3 | CCc1cc(-c2cc(NS(=O)(=O)C(F)(F)F)c(C)cc2C)c(=O)n(C)n1 [Compound 34, N-[5-(6-Ethyl-2,3-dihydro-2-methyl-3-oxo-4-pyridazinyl)-2,4-dimethylphenyl]-1,1,1-trifluoromethanesulfonamide] | 0% | 0% | 30% | 50% | 0% | 0% | 0% | 0% | – | – | – | – | – | –
4 | Cc1cc(C)c(N(COC(=O)C(C)(C)C)S(=O)(=O)C(F)(F)F)cc1C1=NO[C@@H]2CCC[C@H]12 [Compound 100, [[2,4-Dimethyl-5-[(3aR,6aR)-3a,5,6,6a-tetrahydro-4H-cyclopent[d]isoxazol-3-yl]phenyl][(trifluoromethyl)sulfonyl]amino]methyl 2,2-dimethylpropanoate] | 0% | – | 60% | – | 20% | – | 20% | 70% | 0% | 90% | 50% | – | – | –
5 | Cc1cc(C)c(C2=NO[C@@H]3CCC[C@H]23)cc1NS(=O)(=O)C(F)(F)F [Compound 103, N-[2,4-Dimethyl-5-[(3aR,6aR)-3a,5,6,6a-tetrahydro-4H-cyclopent[d]isoxazol-3-yl]phenyl]-1,1,1-trifluoromethanesulfonamide] | 0% | – | 70% | – | 60% | – | 25% | 80% | 30% | 80% | 80% | – | – | –
6 | Cc1cc(C)c(C2=NOC3CCOCC23)cc1NS(=O)(=O)C(F)(F)F (centres unmarked) [Compound 120, N-[2,4-Dimethyl-5-(3a,6,7,7a-tetrahydro-4H-pyrano[3,4-d]isoxazol-3-yl)phenyl]-1,1,1-trifluoromethanesulfonamide] | 20% | – | 70% | – | 70% | – | 0% | 55% | 70% | 90% | 70% | – | – | –
7 | Cc1cc(C)c(C2=NOC3COCCC23)cc1NS(=O)(=O)C(F)(F)F (centres unmarked) [Compound 121, N-[2,4-Dimethyl-5-(3a,4,7,7a-tetrahydro-5H-pyrano[4,3-d]isoxazol-3-yl)phenyl]-1,1,1-trifluoromethanesulfonamide] | 40% | – | 50% | – | 60% | – | 20% | 75% | 80% | 80% | 70% | – | – | –
8 | Cc1c(NS(=O)(=O)C(F)(F)F)cc(C(=O)N(C)C)c(C)c1F [Compound 128, 3-Fluoro-N,N,2,4-tetramethyl-5-[[(trifluoromethyl)sulfonyl]amino]benzamide] | 10% | – | 30% | – | 30% | – | 0% | 50% | 30% | 70% | 60% | – | – | –
9 | Cc1cc(C)c(N(COC(=O)C(C)(C)C)S(=O)(=O)C(F)(F)F)cc1C1=NOC2(CCCC2)C1 [Compound 140, [[2,4-Dimethyl-5-(1-oxa-2-azaspiro[4.4]non-2-en-3-yl)phenyl][(trifluoromethyl)sulfonyl]amino]methyl 2,2-dimethylpropanoate] | 30% | – | 10% | – | – | – | 0% | 85% | 30% | 60% | 60% | 0% | – | –
10 | Cc1cc(C)c(N(COC(=O)C(C)(C)C)S(=O)(=O)C(F)(F)F)cc1C1=NOC2(CCCCC2)C1 [Compound 159, [[2,4-Dimethyl-5-(1-oxa-2-azaspiro[4.5]dec-2-en-3-yl)phenyl][(trifluoromethyl)sulfonyl]amino]methyl 2,2-dimethylpropanoate] | – | – | – | – | – | – | 0% | 35% | 20% | 40% | 50% | 30% | 0% | 20%
11 | Cc1c(NS(=O)(=O)C(F)(F)F)cc(C(=O)N2CCOCC2)c(C)c1F [Compound 190, 1,1,1-Trifluoro-N-[3-fluoro-2,4-dimethyl-5-(4-morpholinylcarbonyl)phenyl]methanesulfonamide] | – | – | – | – | – | – | 0% | 75% | 40% | 70% | 70% | 40% | 10% | 30%
12 | Cc1cc(C)c(C2=NOC3(CCCCC3)C2)cc1NS(=O)(=O)C(F)(F)F [Compound 197, N-[2,4-Dimethyl-5-(1-oxa-2-azaspiro[4.5]dec-2-en-3-yl)phenyl]-1,1,1-trifluoromethanesulfonamide] | – | – | – | – | – | – | 0% | 95% | 60% | 80% | 70% | 60% | 40% | 50%
13 | Cc1cc(C)c(C2=NOC3(CCCC3)C2)cc1NS(=O)(=O)C(F)(F)F [Compound 207, N-[2,4-Dimethyl-5-(1-oxa-2-azaspiro[4.4]non-2-en-3-yl)phenyl]-1,1,1-trifluoromethanesulfonamide] | – | – | – | – | – | – | 0% | 95% | 60% | 60% | 70% | 60% | 20% | 20%
